Experimental data reported in patent publication US9511136B2, “Immunogenic compounds comprising HIV GP41 peptide coupled to CRM197 carrier protein” ([…], priority 2012, dated 2016).
Where “and” joins values, the source holds several entries; their conditions need not be identical. Equal entries are not always repeated.

Test system: NKp44L at the surface of activated human CD4+ T cells
Test: Inhibition by antiserums of 3S16Nter-induced NKp44L expression at the surface of activated human CD4+ T cells (cytofluorometry)
Type: cell-based
Description: The aim of Example 5 was to test the ability of the antiserums of a rat vaccinated with the adjuvanted 3S drug substance to inhibit the expression of NKp44L at the surface of activated human CD4+ T cells induced by the 3S peptide, namely the 3S16Nter peptide.
CD4+ T cells were sorted from human PBMC and activated for 3 days with PHA (Thermo Fisher Scientific, Waltham, USA) then expanded for three days with recombinant IL-2 (Novartis, Horsham, United Kingdom). The cells were put in presence of 3S16Nter peptides (Covalab, Villeurbanne, France) in order to induce the expression of NKp44L at their surface.
The expression of NKp44L at the surface of the cells was measured using the intensity of a specific fluorescent staining measured by cytofluorometry.
The inhibition of NKp44L expression by the antiserums of vaccinated rat was studied.
The antisera were tested at different dilutions in triplicate.
Human CD4+ T cells were obtained by magnetic separation from a leuko-platelet residue pouch ordered from the EFS (“Etablissement Francais du Sang”).
The human CD4+ T cells were sorted from the pouch according to the following protocol: • 1. The pouch is distributed in four Falcon tubes of 50 mL: 4×15 mL • 2. Complete to 50 mL with RPMI1640+glutamax medium (ref 72400-054, GIBCO, Life Technologies, Carlsbad, USA) • 3. […]

H-CPWNASWSNKSLDDIW-OH [3S16Nter]
PE X-mean fluorescence (no serum, with 3S16Nter peptides (5 μg/mL), single wells): 59.6 and 64.7
NKp44L expression on activated CD4+ T cells (mean level) (without serum, in the presence of 3S16Nter peptides): 62
